Source: PubChem BioAssay AID551 (University of Pittsburgh Molecular Library Screening Center, 2006)
The source made the active and inactive calls. How the calls were made is not given here.

Biological target: Dual specificity protein phosphatase 1 (Homo sapiens) (UniProt P28562)
Assay: MKP-1 phosphatase inhibitor potency, dose response, biochemical, in vitro, confirmation (AID 551)
Settings: recombinant MKP-1 phosphatase, fluorescence substrate

Chain of Dual specificity protein phosphatase 1 (Homo sapiens) (P28562 whole entry, looked up): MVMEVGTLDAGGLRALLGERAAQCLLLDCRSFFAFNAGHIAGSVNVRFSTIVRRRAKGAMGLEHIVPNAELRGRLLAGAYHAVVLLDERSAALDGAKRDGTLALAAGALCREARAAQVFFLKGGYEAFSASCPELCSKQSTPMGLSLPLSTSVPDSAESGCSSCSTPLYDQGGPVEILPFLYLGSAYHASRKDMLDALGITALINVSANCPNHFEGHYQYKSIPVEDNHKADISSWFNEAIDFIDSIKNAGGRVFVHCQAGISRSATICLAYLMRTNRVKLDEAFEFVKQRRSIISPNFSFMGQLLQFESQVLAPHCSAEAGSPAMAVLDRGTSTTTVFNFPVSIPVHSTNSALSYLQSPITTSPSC

Structure (SMILES)	IC50
O=C1c2ccccc2-c2onc3ccc(NCCCn4ccnc4)c1c23	27.8 µM
CCOC(=O)c1ccc(NC2c3ncccc3C(=O)N2Cc2ccc(F)cc2)cc1 (centres undefined)	> 50 µM (inactive)
COC(=O)C1=C(C)NC2=C(C(=O)c3ccccc32)C1c1ccc(-c2ccc(C(=O)O)cc2)o1 (centres undefined)	> 50 µM (inactive)
O=C1C(C2=C(O)c3ccccc3C2=O)=Nc2ccccc21	> 50 µM (inactive)
Oc1ccc2ccccc2c1C=NC12CN3CCN(CN(C3)C1)C2	> 50 µM (inactive)

Further lines, results first:

IC50	Structure (SMILES)
50 µM	Cc1cc(C)n2c(SCC(=O)N3CCN(S(=O)(=O)c4ccc(Cl)cc4)CC3)nnc2n1
> 50 µM (inactive)	N#C/C(=C(/O)CSc1nnc(Cc2cccs2)n1C1CCCCC1)c1nc2ccccc2[nH]1
> 50 µM (inactive)	CCSCCOC(=O)C1=C(C)NC2=C(C(=O)CCC2)C1c1coc2ccccc2c1=O (centres undefined)
> 50 µM (inactive)	O=C1c2cccnc2C(Nc2ccc(S(=O)(=O)N3CCCCCC3)cc2)N1Cc1ccccc1 (centres undefined)
